{"source": "paper PMC10065799", "about": "“High-throughput profiling of sequence recognition by tyrosine kinases and SH2 domains using bacterial peptide display” (eLife, 2023)", "molecules": {"B1": {"name": "fluorescently-labeled c-Src-SH2 consensus peptide FITC-Ahx-GDG(pY)EEISPLLL-NH2 (peptide)", "peptide": "{FITC-Ahx}-GDG[pY]EEISPLLL-NH2", "SMILES": "CC[C@H](C)[C@H](NC(=O)[C@H](CCC(=O)O)NC(=O)[C@H](CCC(=O)O)NC(=O)[C@H](Cc1ccc(OP(=O)(O)O)cc1)NC(=O)CNC(=O)[C@H](CC(=O)O)NC(=O)CNC(=O)CCCCCNC(=S)Nc1ccc2c(c1)C(=O)OC21c2ccc(O)cc2Oc2cc(O)ccc21)C(=O)N[C@@H](CO)C(=O)N1CCC[C@H]1C(=O)N[C@@H](CC(C)C)C(=O)N[C@@H](CC(C)C)C(=O)N[C@@H](CC(C)C)C(N)=O", "notes": "also called fluorescent peptide; source: gift from the Amacher lab (Western Washington University)"}}, "note": "Square brackets hold non-standard residues; d marks the D form. * marks the point of attachment. FITC = O=C1OC2(c3ccc(O)cc3Oc3cc(O)ccc32)c2ccc(NC(=S)*)cc21; pY = N[C@@H](Cc1ccc(OP(=O)(O)O)cc1)C(=O)O; Ahx = NCCCCCC(=O)O"}
{"target": "c-Src kinase domain (Homo sapiens, UniProt P12931)", "assay": "pTyr-Var library bacterial peptide display kinase screen (enrichment scores);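 also: log2 fold change in enrichment of variant over reference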", "format": "biochemical", "settings": "sheet \"Src\"; effect of the variant peptide relative to its reference peptide in the pTyr-Var library screen"}
{"molecule": "CPSLLYSPVSS [CAMKK2_Y128_P127L]", "Screen": 2.179}
{"molecule": "SNTFLYQLVFD [EXO1_Y284_N279S]", "Screen": -0.03965}
{"target": "c-Src kinase domain (Homo sapiens, UniProt P12931)", "assay": "pTyr-Var library bacterial peptide display kinase screen (enrichment scores);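 also: log2 fold change in enrichment of variant over reference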", "format": "biochemical", "settings": "sheet \"Src\"; variant peptide versus its reference peptide in the pTyr-Var library screen"}
{"molecule": "HMEAVYIDIAD [PITPNA_Y140_V136M]", "Screen": 0.9488}
{"molecule": "TTSQLYDAMPI [PDPK1_Y9_V12M]", "Screen": -0.9144}
{"molecule": "LEDPMYDIIRD [RP9_Y142_H137L]", "Screen": 0.5395}
{"molecule": "LHNLFYQLEAE [PKP2_Y616_S615F]", "Screen": 4.082}
{"molecule": "AAAAVYTFLPD [MYORG_Y36_M35V]", "Screen": 0.6423}
{"molecule": "PLDGEYFTPQI [TP53_Y327_L330P]", "Screen": -3.182}
{"molecule": "DNEALYDTCFR [TUBB2B_Y208_I210T]", "Screen": -0.1626}
{"molecule": "RRIHSYRGFLW [VHL_Y112_H115Y_YF]", "Screen": -2.75}
{"molecule": "DNEALYDICFC [TUBB3_Y208_R213C]", "Screen": 0.09389}
{"molecule": "KMKGDYFCFLA [YWHAG_Y130_R132C_YF]", "Screen": 0.4816}
{"target": "T1, c-Abl kinase domain (Mus musculus, UniProt P00520)", "T1 sequence (P00520 242-493 limits assumed)": "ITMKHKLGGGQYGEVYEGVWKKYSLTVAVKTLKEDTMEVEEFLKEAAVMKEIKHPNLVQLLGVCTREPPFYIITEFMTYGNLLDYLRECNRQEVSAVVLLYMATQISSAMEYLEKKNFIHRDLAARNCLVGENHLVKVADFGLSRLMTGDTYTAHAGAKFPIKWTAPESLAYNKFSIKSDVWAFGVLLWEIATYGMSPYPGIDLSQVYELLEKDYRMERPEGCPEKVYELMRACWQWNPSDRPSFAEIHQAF", "assay": "pTyr-Var library bacterial peptide display kinase screen (enrichment scores);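 also: log2 fold change in enrichment of variant over reference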", "format": "biochemical", "settings": "sheet \"Abl\"; effect of variant peptide relative to its reference peptide in pTyr-Var library screen (enrichment)"}
{"molecule": "RRIHSYRGFLW [VHL_Y112_H115Y_YF]", "Screen": -4.49}
{"system": "Fer kinase domain", "assay": "pTyr-Var library bacterial peptide display kinase screen (enrichment scores);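 also: log2 fold change in enrichment of variant over reference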", "format": "biochemical, mouse", "settings": "sheet \"Fer\"; value of the variant peptide against its reference peptide in the pTyr-Var library screen with Fer"}
{"molecule": "HMEAVYIDIAD [PITPNA_Y140_V136M]", "Screen": 1.696}
{"molecule": "TTSQLYDAMPI [PDPK1_Y9_V12M]", "Screen": -0.6658}
{"molecule": "LHNLFYQLEAE [PKP2_Y616_S615F]", "Screen": 1.632}
{"molecule": "AAAAVYTFLPD [MYORG_Y36_M35V]", "Screen": 0.8509}
{"molecule": "ADCRFYTFPQM [GAMT_Y223_A224T_YF]", "Screen": -1.641}
{"molecule": "CPSLLYSPVSS [CAMKK2_Y128_P127L]", "Screen": 2.071}
{"molecule": "SNTFLYQLVFD [EXO1_Y284_N279S]", "Screen": -0.008577}
{"system": "Fer kinase domain", "assay": "pTyr-Var library bacterial peptide display kinase screen (enrichment scores);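 also: log2 fold change in enrichment of variant over reference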", "format": "biochemical, mouse", "settings": "sheet \"Fer\"; variant peptide relative to its reference peptide, pTyr-Var library screen enrichment"}
{"molecule": "LEDPMYDIIRD [RP9_Y142_H137L]", "Screen": 0.5422}
{"molecule": "DNEALYDTCFR [TUBB2B_Y208_I210T]", "Screen": -0.2841}
{"molecule": "DNEALYDICFC [TUBB3_Y208_R213C]", "Screen": 0.2993}
{"system": "EPHB1 kinase domain", "assay": "pTyr-Var library bacterial peptide display kinase screen (enrichment scores)", "format": "biochemical, human", "settings": "sheet \"EPHB1\"; variant seq vs reference seq; bacterial peptide display enrichment"}
{"molecule": "PLDGEYFTPQI [TP53_Y327_L330P]", "Screen (variant relative to reference peptide, measured in the pTyr-Var library screen)": -0.3708}
{"molecule": "DNEALYDTCFR [TUBB2B_Y208_I210T]", "Screen (variant relative to reference peptide, measured in the pTyr-Var library screen)": -0.7019}
{"molecule": "RRIHSYRGFLW [VHL_Y112_H115Y_YF]", "Screen (variant relative to reference peptide, measured in the pTyr-Var library screen)": -2.336}
{"molecule": "DNEALYDICFC [TUBB3_Y208_R213C]", "Screen (variant relative to reference peptide, measured in the pTyr-Var library screen)": -0.1227}
{"molecule": "KMKGDYFCFLA [YWHAG_Y130_R132C_YF]", "Screen (variant relative to reference peptide, measured in the pTyr-Var library screen)": 1.698}
{"system": "EPHB1 kinase domain", "assay": "pTyr-Var library bacterial peptide display kinase screen (enrichment scores)", "format": "biochemical, human", "settings": "sheet EPHB1; effect of the variant peptide relative to its reference peptide in the pTyr-Var library screen (enrichment scores)"}
{"molecule": "HMEAVYIDIAD [PITPNA_Y140_V136M]", "Screen": 1.841}
{"molecule": "TTSQLYDAMPI [PDPK1_Y9_V12M]", "Screen": -0.6854}
{"molecule": "LEDPMYDIIRD [RP9_Y142_H137L]", "Screen": 0.4802}
{"molecule": "AAAAVYTFLPD [MYORG_Y36_M35V]", "Screen": 0.3532}
{"molecule": "ADCRFYTFPQM [GAMT_Y223_A224T_YF]", "Screen": -1.572}
{"molecule": "CPSLLYSPVSS [CAMKK2_Y128_P127L]", "Screen": 3.226}
{"molecule": "SNTFLYQLVFD [EXO1_Y284_N279S]", "Screen": 0.05167}
{"system": "EPHB2 kinase domain", "assay": "pTyr-Var library bacterial peptide display kinase screen (enrichment scores);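 also: log2 fold change in enrichment of variant over reference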", "format": "biochemical, human", "settings": "sheet EPHB2; effect of the variant relative to its reference peptide in the pTyr-Var library screen"}
{"molecule": "PLDGEYFTPQI [TP53_Y327_L330P]", "Screen": 0.1464}
{"molecule": "DNEALYDTCFR [TUBB2B_Y208_I210T]", "Screen": -0.7919}
{"molecule": "RRIHSYRGFLW [VHL_Y112_H115Y_YF]", "Screen": -0.9029}
{"molecule": "DNEALYDICFC [TUBB3_Y208_R213C]", "Screen": 0.1536}
{"molecule": "KMKGDYFCFLA [YWHAG_Y130_R132C_YF]", "Screen": 1.601}
{"system": "EPHB2 kinase domain", "assay": "pTyr-Var library bacterial peptide display kinase screen (enrichment scores);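 also: log2 fold change in enrichment of variant over reference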", "format": "biochemical, human", "settings": "sheet EPHB2; effect of variant peptide relative to its reference peptide in the pTyr-Var library screen (enrichment scores)"}
{"molecule": "HMEAVYIDIAD [PITPNA_Y140_V136M]", "Screen": 1.927}
{"molecule": "TTSQLYDAMPI [PDPK1_Y9_V12M]", "Screen": -1.368}
{"molecule": "LEDPMYDIIRD [RP9_Y142_H137L]", "Screen": 0.7516}
{"molecule": "LHNLFYQLEAE [PKP2_Y616_S615F]", "Screen": 1.672}
{"molecule": "AAAAVYTFLPD [MYORG_Y36_M35V]", "Screen": 0.71}
{"molecule": "ADCRFYTFPQM [GAMT_Y223_A224T_YF]", "Screen": -2.189}
{"molecule": "CPSLLYSPVSS [CAMKK2_Y128_P127L]", "Screen": 2.723}
{"molecule": "SNTFLYQLVFD [EXO1_Y284_N279S]", "Screen": -0.053}
{"target": "human c-Src SH2 domain (residues 143-250) (human, UniProt P12931-1 143-250, biotin on the Avi tag (co-expression with the biotin ligase BirA))", "assay": "fluorescence polarisation; direct titration: varying concentrations of c-Src SH2 with 30 nM fluorescent peptide, 15 min; 60 mM HEPES pH 7.2, 75 mM KCl, 75 mM NaCl, 1 mM EDTA, 0.05% Tween 20; 25 °C; quadratic binding equation", "settings": "both partners purified", "units": {"Kd": "nM"}}
{"molecule": "B1", "Kd": 160}
